For 42 molecules, IC50 results are on record in patent US20110034441A1, “INDAZOLES AS WNT/B-CATENIN SIGNALING PATHWAY INHIBITORS AND THERAPEUTIC USES THEREOF” (EPITHERIX, LLC, priority 2009, published 2011).

For the assay, the system named is Wnt. The experiment in a line: Wnt reporter screening assay: SP5 promoter (TCF/LEF) firefly luciferase in SW480 cells. Type of assay: cell-based. The conditions noted are these: Homo sapiens; SW480 colon cancer cells with SP5 promoter luciferase reporter; 24 hours after compound addition; normalized to DMSO; read-out: Wnt inhibition, IC50. The text has this: Another screening assay for Wnt activity is described as follows. Reporter cell lines can be generated by stably transducing cells of cancer cell lines (e.g., colon cancer) with a lentiviral construct that include a wnt-responsive promoter driving expression of the firefly luciferase gene.
Lentiviral constructs can be made in which the SP5 promoter, a promoter having eight TCF/LEF binding sites derived from the SP5 promoter, is linked upstream of the firefly luciferase gene. The lentiviral constructs can also include a hygromycin resistance gene as a selectable marker. The SP5 promoter construct can be used to transduce SW480 cells, a colon cancer cell line having a mutated APC gene that generates a truncated APC protein, leading to de-regulated accumulation of β-catenin.
Cultured SW480 cells bearing a reporter construct can be distributed at approximately 10,000 cells per well into 384 well multiwell plates. Compounds from a small molecule compound library can then be added to the wells in half-log dilutions using a three micromolar top concentration. A series of control wells for each cell type receive only buffer and compound solvent. Twenty-four hours after the addition of compound, reporter activity for luciferases can be assayed, for example, by addition of the BrightGlo luminescence reagent (Promega) and the Victor3 plate reader (Perkin Elmer). Readings can be normalized to DMSO only treated cells, and normalized activities can then be used in the IC50 calculations.
In general terms: Reporter assays use an easily measured gene product as a stand-in for the process of interest.

Regarding `CCNC(=O)c1cncc(-c2ccc3[nH]nc(-c4nc5ccccc5[nH]4)c3c2)c1` [Compound 44, 5-(3-(1H-benzo[d]imidazol-2-yl)-1H-indazol-5-yl)-N-ethyl nicotinamide], the IC50 was 960 to 1560 nM.
`N#Cc1ccc2[nH]nc(-c3nc4ccccc4[nH]3)c2c1` [Compound 27, 3-(1H-benzo[d]imidazol-2-yl)-1H-indazole-5-carbonitrile]: the IC50 is over 10000 nM.
For the molecule `CCNCc1cncc(-c2ccc3[nH]nc(-c4nc5ccccc5[nH]4)c3c2)c1C` [Compound 31, N-((5-(3-(1H-benzo[d]imidazol-2-yl)-1H-indazol-5-yl)-4-methylpyridin-3-yl)methyl)ethanamine], the IC50 was found to be 243 nM.
Next, `Cc1ccc(CN2CCN(C(=O)c3ccc4[nH]nc(-c5nc6ccccc6[nH]5)c4c3)CC2)cc1` [Compound 21, (3-(1H-benzo[d]imidazol-2-yl)-1H-indazol-5-yl)(4-(4-methylbenzyl)piperazin-1-yl)methanone]: 5300 nM; `CCNCc1cncc(-c2ccc3[nH]nc(-c4nc5c(-c6cccc(C)c6)cccc5[nH]4)c3c2)c1C` [Compound 40, N-((4-methyl-5-(3-(4-m-tolyl-1H-benzo[d]imidazol-2-yl)-1H-indazol-5-yl)pyridin-3-yl)methyl)ethanamine]: 670 to 860 nM.
The result for `O=C(c1ccc2[nH]nc(-c3nc4ccccc4[nH]3)c2c1)N1CCCC1c1ccccc1` (stereo not drawn) [Compound 16] reads 3100 nM; that for `CCC(CC)NC(=O)c1ccc2[nH]nc(-c3nc4ccccc4[nH]3)c2c1` [Compound 1, 3-(1H-benzo[d]imidazol-2-yl)-N-(pentan-3-yl)-1H-indazole-5-carboxamide], 200 to 310 nM; that for `CN1CCCN(C(=O)c2ccc3[nH]nc(-c4nc5ccccc5[nH]4)c3c2)CC1` [Compound 22, (3-(1H-benzo[d]imidazol-2-yl)-1H-indazol-5-yl)(4-methyl-1,4-diazepan-1-yl)methanone], 1850 nM.
Turning to `CS(=O)(=O)N1CCCC(CNC(=O)c2ccc3[nH]nc(-c4nc5ccccc5[nH]4)c3c2)C1` (stereo not drawn) [Compound 13], the IC50 amounted to 1800 nM.
For the molecule `CCNCc1cncc(-c2ccc3[nH]nc(-c4nc5c(-c6ccccc6)cccc5[nH]4)c3c2)c1C` [Compound 39, N-((4-methyl-5-(3-(4-phenyl-1H-benzo[d]imidazol-2-yl)-1H-indazol-5-yl)pyridin-3-yl)methyl)ethanamine], the IC50 fell in the range of 690 to 730 nM.
Next, `Cc1ccccc1OC1CCN(C(=O)c2ccc3[nH]nc(-c4nc5ccccc5[nH]4)c3c2)C1` (stereo not drawn) [Compound 14]: 1900 nM.
With `O=C(c1ccc2[nH]nc(-c3nc4ccccc4[nH]3)c2c1)N1CCOCC1` [Compound 23, (3-(1H-benzo[d]imidazol-2-yl)-1H-indazol-5-yl)(morpholino) methanone], the IC50 is over 10000 nM.
`CCNCc1cncc(-c2ccc3[nH]nc(-c4nc5c(N6CCCC6)cccc5[nH]4)c3c2)c1C` [Compound 36, N-((4-methyl-5-(3-(4-(pyrrolidin-1-yl)-1H-benzo[d]imidazol-2-yl)-1H-indazol-5-yl)pyridin-3-yl)methyl)ethanamine]: the IC50 was found to be 750 nM.
The result for `O=C(c1ccc2[nH]nc(-c3nc4ccccc4[nH]3)c2c1)N1CCSCC1` [Compound 24, (3-(1H-benzo[d]imidazol-2-yl)-1H-indazol-5-yl)(thiomorpholino)methanone] reads 8000 nM; that for `O=C(NCC1(O)CCCCC1)c1ccc2[nH]nc(-c3nc4ccccc4[nH]3)c2c1` [Compound 12], 1600 nM; that for `CC(C)CC(=O)N1CC2CC1CN2C(=O)c1ccc2[nH]nc(-c3nc4ccccc4[nH]3)c2c1` (stereo not drawn) [Compound 8], 930 nM.
The result for `CN(C)C(=O)c1ccc2[nH]nc(-c3nc4ccccc4[nH]3)c2c1` [Compound 30, 3-(1H-benzo[d]imidazol-2-yl)-N,N-dimethyl-1H-indazole-5-carboxamide] reads 2000 nM; that for `Cc1cc(C)cc(-c2ccc3c(NC(=O)NCC4CC4)n[nH]c3c2)c1` [Compound 48], 390 nM.
`Cc1ccccc1O[C@@H]1CCN(C(=O)c2ccc3[nH]nc(-c4nc5ccccc5[nH]4)c3c2)C1` [Compound 18]: the IC50 is 1900 nM.
In the case of `CN1CCCCC1CNC(=O)c1ccc2[nH]nc(-c3nc4ccccc4[nH]3)c2c1` (stereo not drawn) [Compound 5], the IC50 was 630 nM.
With `CCNCc1cncc(-c2ccc3[nH]nc(-c4nc5c(-c6ccc(C)cc6)cccc5[nH]4)c3c2)c1C` [Compound 41, N-((4-methyl-5-(3-(4-p-tolyl-1H-benzo[d]imidazol-2-yl)-1H-indazol-5-yl)pyridin-3-yl)methyl)ethanamine], the IC50 fell in the range of 330 to 470 nM.
`O=C(NC1Cc2ccccc2C1)c1ccc2[nH]nc(-c3nc4ccccc4[nH]3)c2c1` [Compound 4]: the IC50 was found to be 600 nM.
For `Cc1ccccc1C1CCCN1C(=O)c1ccc2[nH]nc(-c3nc4ccccc4[nH]3)c2c1` (stereo not drawn) [Compound 15], the IC50 is 3000 nM.
For the molecule `O=C(NC1CCCN(S(=O)(=O)c2ccccc2F)C1)c1ccc2[nH]nc(-c3nc4ccccc4[nH]3)c2c1` (stereo not drawn) [Compound 2], the IC50 is 500 nM.
`O=C(NCc1ccccc1)c1cncc(-c2ccc3[nH]nc(-c4nc5ccccc5[nH]4)c3c2)c1` [Compound 45, 5-(3-(1H-benzo[d]imidazol-2-yl)-1H-indazol-5-yl)-N-benzylnicotinamide]: the IC50 lay in the range of 1230 to 2280 nM.
The result for `O=C(NC1CCc2ccccc21)c1ccc2[nH]nc(-c3nc4ccccc4[nH]3)c2c1` (stereo not drawn) [Compound 10] reads 1000 nM; that for `CCNCc1cncc(-c2ccc3[nH]nc(-c4nc5c(-c6cccnc6)cccc5[nH]4)c3c2)c1C` [Compound 37, N-((4-methyl-5-(3-(4-(pyridin-3-yl)-1H-benzo[d]imidazol-2-yl)-1H-indazol-5-yl)pyridin-3-yl)methyl)ethanamine], 200 to 240 nM; that for `CN1CCC(CNC(=O)c2ccc3[nH]nc(-c4nc5ccccc5[nH]4)c3c2)C1` (stereo not drawn) [Compound 3], 580 nM.
Next, `O=C(c1ccc2[nH]nc(-c3nc4ccccc4[nH]3)c2c1)N1CCCC1` [Compound 20, (3-(1H-benzo[d]imidazol-2-yl)-1H-indazol-5-yl)(pyrrolidin-1-yl)methanone]: 606 nM; `CCNCc1cncc(-c2ccc3[nH]nc(-c4nc5c(-c6ccccc6C)cccc5[nH]4)c3c2)c1C` [Compound 42, N-((4-methyl-5-(3-(4-o-tolyl-1H-benzo[d]imidazol-2-yl)-1H-indazol-5-yl)pyridin-3-yl)methyl)ethanamine]: 2500 to 3600 nM; `CCNCc1cncc(-c2ccc3[nH]nc(-c4nc5c(-n6cnc(C)c6)cccc5[nH]4)c3c2)c1C` [Compound 32, N-((4-methyl-5-(3-(4-(4-methyl-1H-imidazol-1-yl)-1H-benzo[d]imidazol-2-yl)-1H-indazol-5-yl)pyridin-3-yl)methyl)ethanamine]: 40 to 63 nM.
Next, `NC(=O)c1ccc2[nH]nc(-c3nc4ccccc4[nH]3)c2c1` [Compound 28, 3-(1H-benzo[d]imidazol-2-yl)-1H-indazole-5-carboxamide]: 1000 nM; `CS(=O)(=O)N1CCCC(NC(=O)c2ccc3[nH]nc(-c4nc5ccccc5[nH]4)c3c2)C1` (stereo not drawn) [Compound 7]: 800 nM; `CC[C@H](C)[C@@H](CO)NC(=O)c1ccc2[nH]nc(-c3nc4ccccc4[nH]3)c2c1` [Compound 17]: 750 nM.
As to `COc1ccc(S(=O)(=O)N2CCCC(NC(=O)c3ccc4[nH]nc(-c5nc6ccccc6[nH]5)c4c3)C2)cc1` (stereo not drawn) [Compound 11], the IC50 is 1300 nM.
The result for `Cc1cn(-c2cccc3[nH]c(-c4n[nH]c5ccc(-c6cnccc6C)cc45)nc23)cn1` [Compound 34, 3-(4-(4-methyl-1H-imidazol-1-yl)-1H-benzo[d]imidazol-2-yl)-5-(4-methylpyridin-3-yl)-1H-indazole] reads 10 to 46 nM; that for `O=C(NC1CCCN(S(=O)(=O)c2cccc(F)c2)C1)c1ccc2[nH]nc(-c3nc4ccccc4[nH]3)c2c1` (stereo not drawn) [Compound 9], 1000 nM.
Regarding `O=C(c1ccc2[nH]nc(-c3nc4ccccc4[nH]3)c2c1)N1CCCCC1` [Compound 26, (3-(1H-benzo[d]imidazol-2-yl)-1H-indazol-5-yl)(piperidin-1-yl)methanone], the IC50 is over 10000 nM.
As to `O=C(O)c1ccc2[nH]nc(-c3nc4ccccc4[nH]3)c2c1` [Compound 29, 3-(1H-benzimidazol-2-yl)-1H-indazole-5-carboxylic acid], the IC50 was over 10000 nM.
Next, `CCNCc1cncc(-c2ccc3[nH]nc(-c4nc5c(N6CCCCC6)cccc5[nH]4)c3c2)c1C` [Compound 35, N-((4-methyl-5-(3-(4-(piperidin-1-yl)-1H-benzo[d]imidazol-2-yl)-1H-indazol-5-yl)pyridin-3-yl)methyl)ethanamine]: 147 to 243 nM; `CCNCc1cncc(-c2ccc3[nH]nc(-c4nc5ccccc5[nH]4)c3c2)c1` [Compound 38, N-((5-(3-(1H-benzo[d]imidazol-2-yl)-1H-indazol-5-yl)pyridin-3-yl)methyl)ethanamine]: 124 to 235 nM.
With `CN1CCN(C(=O)c2ccc3[nH]nc(-c4nc5ccccc5[nH]4)c3c2)CC1` [Compound 25, [3-(1H-benzimidazol-2-yl)-1H-indazole-5-yl]-(4-methyl-piperazin-1-yl)-methanone], the IC50 is over 10000 nM.

As a reminder, the IC50 is the midpoint of a concentration-inhibition curve.
